Results taken from patent US11198673B2, “Therapeutic compounds and compositions” (eXIthera Pharmaceuticals, Inc., priority 2014, dated 2021).

Assays:
human Factor XIa = target: T1, human Factor XIa (Homo sapiens, UniProt P03951); assay: Factor XIa enzyme inhibition assay (IC50, purified enzyme); type: biochemical; settings: purified enzyme 0.25 nM, substrate 50 μM; read-out: Potency hFXIa IC50
T1 construct: Enzyme: Factor XIa; 0.25 μM in 50% glycerol (20 μg/mL)
Method: (§1) • Assay buffer: 20 mM Hepes, pH 7.4; 150 mM NaCl; 0.02% Tween 20 • Compounds: 10 mM stocks in DMSO • Substrate: 20 mM Glp-Pro-Arg-AMC, 25 mg/2.3 mL H2O (store at +4° C.) [Factor XIa, thrombin, and trypsin] • 20 mM Pro-Phe-Arg-AMC (Bachem I-1295), 25 mg/2.2 mL H2O (store at +4° C.) [Factor Xa] • Enzyme: Factor XIa; 0.25 μM in 50% glycerol (20 μg/mL) • Trypsin; 0.2 μM in 50% glycerol (4.8 μg/mL) • Thrombin; 0.2 μM in 50% glycerol (7.34 μg/mL) • Factor Xa; 0.2 μM in 50% glycerol (9.2 μg/mL) • These stocks are aliquoted ([…]) and stored at −20° C. Methods: • 1. Dilute the substrate to 100 μM in assay buffer (30 μL/6 mL). The enzyme is diluted to 0.5 nM just prior to use (12 μL/6 mL for Factor XIa; 15 μL/6 mL for all of the rest.) • 2. Pipette 50 μL of substrate into each well of the 96 well (12×8) microtiter plate. (Column 1 is used as the 100% activity control and receives no compound, and Column 12 is the blank and receives no enzyme.) Add an additional 46 μL to column 2. • 3. Pipette 4 μL of each compound into the appropriate well in column 2 of the plate (unknowns assayed in triplicate, standard assayed in duplicate). The final compound concentration will be 1/50th of the stock. • 4. Serially two-fold dilute the compound by mixing the sample in column 2, removing 50 μL to the next well (column 3), mix and remove to column 4, etc. until column 11. After mixing column 11, remove 50 μL and discard. • 5. Pipette 50 μL of buffer into column 12. Initiate the reaction by adding 50 μL of enzyme solution to each well of columns 1-11 as rapidly as possible. • 6. Read the plate in a spectrophotometer (SpectraMax) at 30° C., wherein each well is measured every 60 s for 30 min. For Factor Xa assays, each well is measured every 1 min for a total of 60 min. • 7. For Factor XIa assays, the compounds are assayed, in duplicate, at 3 different starting concentrations, 20, 2, and 0.2 μM; 1:10, 1:100, and 1:1000 dil'n of 10 mM stock. All data sets are combined for graphing and data fitting. • 8. Data can be used both for estimation of IC50 and for estimation of Kon.
Potential inhibitors of Factor XIa were evaluated using the following assay.
S-2366, pyroGlu-Pro-Arg-7-methylaminocourin (AMC), available from CPC Scientific, Inc., is based on the substrate pyro-Glu-Pro-Arg-pNA, available from Diapharma Group, Inc. (Columbus, Ohio), where the p-nitroanaline group is replaced with 7-methylaminocoumarin (AMC).
The final concentration of the substrate in the assay was 50 μM, and the final concentration of the enzyme was 0.25 nM. Inhibitors were tested by serial dilution over an appropriate range to yield a dose response curve for determination of the inhibitors' IC50 value. The assay mixture was read every minute for 30 minutes in order to generate progress curves. The plates were read in a Spectramax m5 Multimode Plate Reader (Molecular Devices LLC, Sunnyvale, Calif.). Dose response curves were fit to Equation 1 below in which A is the maximum inhibition, B is the minimum inhibition, C is the IC50, and D is the Hill coefficient. [(A−B)/(1+(X/C)^D)]+B (Equation 1)

Factor Xa = target: T2, Factor Xa (Homo sapiens, UniProt P00742); assay: Dose response assay for protease inhibitors: Factor Xa (FXIa fold selectivity); type: biochemical; settings: fold selectivity for FXIa over Factor Xa
T2 construct: Factor Xa; 0.2 μM in 50% glycerol (9.2 μg/mL)
T2 sequence (P00742 235-488 limits assumed): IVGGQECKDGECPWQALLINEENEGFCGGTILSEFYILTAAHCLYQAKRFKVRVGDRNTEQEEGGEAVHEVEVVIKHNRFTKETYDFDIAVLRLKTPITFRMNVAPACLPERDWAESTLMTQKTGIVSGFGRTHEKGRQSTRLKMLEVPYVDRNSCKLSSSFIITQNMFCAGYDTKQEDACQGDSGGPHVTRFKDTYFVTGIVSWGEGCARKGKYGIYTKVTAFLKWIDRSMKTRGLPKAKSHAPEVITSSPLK
T2 sequence (P00742 41-179 partner limits assumed): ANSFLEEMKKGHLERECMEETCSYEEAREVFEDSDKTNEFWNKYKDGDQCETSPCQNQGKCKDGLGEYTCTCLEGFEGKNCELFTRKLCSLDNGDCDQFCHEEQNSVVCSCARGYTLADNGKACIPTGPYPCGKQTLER
Method: as §1

Thrombin = target: T3, Thrombin (Homo sapiens, UniProt P00734); assay: Dose response assay for protease inhibitors: thrombin (FXIa fold selectivity); type: biochemical; settings: fold selectivity for FXIa over thrombin
T3 construct: Thrombin; 0.2 μM in 50% glycerol (7.34 μg/mL)
Method: as §1

Trypsin = assay: Dose response assay for protease inhibitors: trypsin (FXIa fold selectivity); type: biochemical; settings: fold selectivity for FXIa over trypsin
Method: as §1

[1] = β-Lactam stability in rat plasma; type: in vitro ADME; settings: normal rat plasma, room temperature; read-out: Rat Plasma Stability (T1/2; min)
Method: Normal rat plasma, stored at −80° C.
• 1. Place 6 μL of each compound into 0.5 mL microcentrifuge tubes or 96-well U-bottom, polypropylene microtiter plate • 2. Place 40 μL of acetonitrile (AcN) into 0.5 mL microcentrifuge tubes labeled 1-9 • 3. Add 114 μL of plasma to each compound • 4. Sample 10 μL of compound/plasma into AcN at 2, 10, 20, 30, 60, 90, 120, 240, and 480 min of incubation at room temperature • 5. Mix each time point after adding sample and place on ice. • 6. Centrifuge time points (12,000 rpm, 3 min), remove 15 μL of the supernatant and mix with 15 μL 0.1% TFA in a V-bottom microtiter plate. • 7. Place microtiter plate in autosampler of HPLC and analyze on Restek Pinnacle C18 column (2.1×100 mm). • 8. Generate extracted ion chromatogram for parent compound and parent compound+18 (H2O). Integrate extracted ion chromatograms (EIC) and plot % total peak area for parent and adduct versus time. Fit to a model of single phase exponential decay [Y=A0*exp(−k*x)+C]. T½ is equal to ln(2)/k.

T1 sequence (P03951 388-625 limits assumed): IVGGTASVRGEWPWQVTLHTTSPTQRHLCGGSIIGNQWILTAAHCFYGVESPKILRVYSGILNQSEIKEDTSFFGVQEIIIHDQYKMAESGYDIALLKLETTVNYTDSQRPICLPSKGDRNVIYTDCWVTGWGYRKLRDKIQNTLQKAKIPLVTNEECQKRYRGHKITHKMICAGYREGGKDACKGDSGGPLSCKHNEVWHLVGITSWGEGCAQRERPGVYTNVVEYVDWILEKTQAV
T1 sequence (P03951 19-387 partner limits assumed): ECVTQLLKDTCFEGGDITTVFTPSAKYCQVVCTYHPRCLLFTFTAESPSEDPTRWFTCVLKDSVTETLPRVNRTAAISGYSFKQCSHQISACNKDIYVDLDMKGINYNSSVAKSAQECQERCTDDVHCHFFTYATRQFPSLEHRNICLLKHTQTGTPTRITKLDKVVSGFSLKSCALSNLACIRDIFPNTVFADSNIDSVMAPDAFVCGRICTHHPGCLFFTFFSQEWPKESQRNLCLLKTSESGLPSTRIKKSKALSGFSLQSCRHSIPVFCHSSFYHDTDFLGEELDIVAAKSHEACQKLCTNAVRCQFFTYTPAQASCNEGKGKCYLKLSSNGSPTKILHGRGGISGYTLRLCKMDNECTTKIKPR

CCOC(=O)[C@@H]1[C@@H](Cc2ccnc(N)c2)C(=O)N1C(=O)N[C@H](C)c1ccc(OC(F)(F)F)cc1 [Example 103]
IC50 (human Factor XIa): < 10 nM | FXIa Fold Selectivity FXa (Factor Xa): I (“I” indicates >1000) | FXIa Fold Selectivity Thrombin (Thrombin): H (“H” indicates 500-1000) | FXIa Fold Selectivity Trypsin (Trypsin): G (“G” indicates 1-500) | half-life [1]: < 1.67 h

N#C[C@@H]1[C@@H](Cc2ccnc(N)c2)C(=O)N1C(=O)NC(c1ccccc1)c1ccccc1 [Example 28]
IC50 (human Factor XIa): 10 to 100 nM | FXIa Fold Selectivity FXa (Factor Xa): I (“I” indicates >1000) | FXIa Fold Selectivity Thrombin (Thrombin): I (“I” indicates >1000) | FXIa Fold Selectivity Trypsin (Trypsin): G (“G” indicates 1-500) | half-life [1]: < 1.67 h

C[C@@H](NC(=O)N1C(=O)[C@H](Cc2ccnc(N)c2)[C@H]1C(=O)O)C1CCCCCCC1 [Example 104]
IC50 (human Factor XIa): < 10 nM | FXIa Fold Selectivity FXa (Factor Xa): I (“I” indicates >1000) | FXIa Fold Selectivity Thrombin (Thrombin): I (“I” indicates >1000) | FXIa Fold Selectivity Trypsin (Trypsin): I (“I” indicates >1000) | half-life [1]: > 1.67 h

C[C@@H](NC(=O)N1C(=O)[C@H](Cc2ccnc(N)c2)[C@H]1C(=O)O)c1ccc(F)c(F)c1 [Example 68]
IC50 (human Factor XIa): < 10 nM | FXIa Fold Selectivity FXa (Factor Xa): G (“G” indicates 1-500) | FXIa Fold Selectivity Thrombin (Thrombin): I (“I” indicates >1000) | FXIa Fold Selectivity Trypsin (Trypsin): I (“I” indicates >1000) | half-life [1]: > 1.67 h

C[C@H](NC(=O)N1C(=O)[C@H](Cc2ccnc(N)c2)[C@H]1C(=O)O)c1ccc2c(c1)OC(F)(F)O2 [Example 130]
IC50 (human Factor XIa): 100 to 1000 nM | FXIa Fold Selectivity FXa (Factor Xa): G (“G” indicates 1-500) | FXIa Fold Selectivity Thrombin (Thrombin): G (“G” indicates 1-500) | FXIa Fold Selectivity Trypsin (Trypsin): G (“G” indicates 1-500) | half-life [1]: > 1.67 h

COc1cccc([C@@H](C)NC(=O)N2C(=O)[C@H](Cc3ccnc(N)c3)[C@H]2C(=O)O)c1 [Example 29]
IC50 (human Factor XIa): < 10 nM | FXIa Fold Selectivity FXa (Factor Xa): I (“I” indicates >1000) | FXIa Fold Selectivity Thrombin (Thrombin): I (“I” indicates >1000) | FXIa Fold Selectivity Trypsin (Trypsin): G (“G” indicates 1-500) | half-life [1]: > 1.67 h

CCOC(=O)[C@@H]1[C@@H](Cc2ccnc(NC(=O)OCOC(=O)C(C)C)c2)C(=O)N1C(=O)N[C@H](C)C1CCCCC1 [Example 137]
IC50 (human Factor XIa): 10 to 100 nM | FXIa Fold Selectivity FXa (Factor Xa): H (“H” indicates 500-1000) | FXIa Fold Selectivity Thrombin (Thrombin): I (“I” indicates >1000) | FXIa Fold Selectivity Trypsin (Trypsin): I (“I” indicates >1000) | half-life [1]: < 1.67 h

CCOC(=O)[C@@H]1[C@@H](Cc2ccnc(NC(=O)OCOC(=O)C(C)C)c2)C(=O)N1C(=O)N[C@@H](C1CCCCC1)C(F)(F)F [Example 140]
IC50 (human Factor XIa): 10 to 100 nM | FXIa Fold Selectivity FXa (Factor Xa): I (“I” indicates >1000) | FXIa Fold Selectivity Thrombin (Thrombin): I (“I” indicates >1000) | FXIa Fold Selectivity Trypsin (Trypsin): G (“G” indicates 1-500) | half-life [1]: < 1.67 h

Nc1cc(C[C@H]2C(=O)N(C(=O)NCC(c3ccccc3)c3ccccc3)[C@@H]2C(=O)O)ccn1 [Example 31]
IC50 (human Factor XIa): 100 to 1000 nM | FXIa Fold Selectivity FXa (Factor Xa): G (“G” indicates 1-500) | FXIa Fold Selectivity Thrombin (Thrombin): G (“G” indicates 1-500) | FXIa Fold Selectivity Trypsin (Trypsin): G (“G” indicates 1-500) | half-life [1]: > 1.67 h

CNc1cc(C[C@H]2C(=O)N(C(=O)N[C@H](C)c3ccc4c(c3)OC(F)(F)O4)[C@@H]2C(=O)O)ccn1 [Example 98]
IC50 (human Factor XIa): < 10 nM | FXIa Fold Selectivity FXa (Factor Xa): G (“G” indicates 1-500) | FXIa Fold Selectivity Thrombin (Thrombin): I (“I” indicates >1000) | FXIa Fold Selectivity Trypsin (Trypsin): I (“I” indicates >1000) | half-life [1]: > 1.67 h

CCOC(=O)[C@@H]1C(Cc2ccnc(Cl)c2)C(=O)N1C(=O)N[C@H](C)c1ccc2c(c1)OC(F)(F)O2 (some centres unmarked) [Example 132]
IC50 (human Factor XIa): 100 to 1000 nM | FXIa Fold Selectivity FXa (Factor Xa): G (“G” indicates 1-500) | FXIa Fold Selectivity Thrombin (Thrombin): G (“G” indicates 1-500) | FXIa Fold Selectivity Trypsin (Trypsin): G (“G” indicates 1-500) | half-life [1]: < 1.67 h

CC(C)[C@@H](C)NC(=O)N1C(=O)[C@H](Cc2ccnc(N)c2)[C@H]1C(=O)O [Example 32]
IC50 (human Factor XIa): 10 to 100 nM | FXIa Fold Selectivity FXa (Factor Xa): G (“G” indicates 1-500) | FXIa Fold Selectivity Thrombin (Thrombin): G (“G” indicates 1-500) | FXIa Fold Selectivity Trypsin (Trypsin): G (“G” indicates 1-500) | half-life [1]: > 1.67 h

CCOC(=O)[C@@H]1[C@@H](Cc2ccnc(N)c2)C(=O)N1C(=O)N[C@@H](C)c1ccc2c(c1)OC(F)(F)O2 [Example 166]
IC50 (human Factor XIa): < 10 nM | FXIa Fold Selectivity FXa (Factor Xa): H (“H” indicates 500-1000) | FXIa Fold Selectivity Thrombin (Thrombin): I (“I” indicates >1000) | FXIa Fold Selectivity Trypsin (Trypsin): G (“G” indicates 1-500) | half-life [1]: < 1.67 h

CS(=O)(=O)[C@@H]1[C@@H](Cc2ccnc(N)c2)C(=O)N1C(=O)NC(c1ccccc1)c1ccccc1 [Example 35]
IC50 (human Factor XIa): 100 to 1000 nM | FXIa Fold Selectivity FXa (Factor Xa): G (“G” indicates 1-500) | FXIa Fold Selectivity Thrombin (Thrombin): G (“G” indicates 1-500) | FXIa Fold Selectivity Trypsin (Trypsin): G (“G” indicates 1-500) | half-life [1]: < 1.67 h

CON=C[C@@H]1[C@@H](Cc2ccnc(N)c2)C(=O)N1C(=O)N[C@H](C)c1ccccc1 [Example 53]
IC50 (human Factor XIa): 10 to 100 nM | FXIa Fold Selectivity FXa (Factor Xa): G (“G” indicates 1-500) | FXIa Fold Selectivity Thrombin (Thrombin): G (“G” indicates 1-500) | FXIa Fold Selectivity Trypsin (Trypsin): G (“G” indicates 1-500) | half-life [1]: < 1.67 h

Nc1cc(C[C@H]2C(=O)N(C(=O)NCc3ccccc3)[C@@H]2C(=O)O)ccn1 [Example 48]
IC50 (human Factor XIa): 100 to 1000 nM | FXIa Fold Selectivity FXa (Factor Xa): G (“G” indicates 1-500) | FXIa Fold Selectivity Thrombin (Thrombin): G (“G” indicates 1-500) | FXIa Fold Selectivity Trypsin (Trypsin): G (“G” indicates 1-500) | half-life [1]: > 1.67 h

C[C@@H](NC(=O)N1C(=O)[C@H](Cc2ccnc(N)c2)[C@H]1S(C)(=O)=O)c1ccccc1 [Example 39]
IC50 (human Factor XIa): 100 to 1000 nM | FXIa Fold Selectivity FXa (Factor Xa): G (“G” indicates 1-500) | FXIa Fold Selectivity Thrombin (Thrombin): G (“G” indicates 1-500) | FXIa Fold Selectivity Trypsin (Trypsin): G (“G” indicates 1-500) | half-life [1]: < 1.67 h

O=C(O)[C@@H]1[C@@H](CCc2cccc(Cl)c2F)C(=O)N1C(=O)N[C@@H](C1CCCCC1)C(F)(F)F [Example 156]
IC50 (human Factor XIa): 100 to 1000 nM | FXIa Fold Selectivity FXa (Factor Xa): H (“H” indicates 500-1000) | FXIa Fold Selectivity Thrombin (Thrombin): I (“I” indicates >1000) | FXIa Fold Selectivity Trypsin (Trypsin): I (“I” indicates >1000) | half-life [1]: > 1.67 h

CCOC(=O)[C@@H]1[C@@H](Cc2ccncc2)C(=O)N1C(=O)N[C@H](C)c1ccc2c(c1)OC(F)(F)O2 [Example 170]
IC50 (human Factor XIa): 10 to 100 nM | FXIa Fold Selectivity FXa (Factor Xa): G (“G” indicates 1-500) | FXIa Fold Selectivity Thrombin (Thrombin): G (“G” indicates 1-500) | FXIa Fold Selectivity Trypsin (Trypsin): G (“G” indicates 1-500) | half-life [1]: < 1.67 h
